Laboratory results: the supplement of paper PMC3974653
Counter-ions that a name gives are not always drawn.

System: MTT (mouse pheochromocytoma)
Experiment: IC50 of cell viability (ATP content)
Conditions: (24 or 48 h)
In short: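 CellTiter-Glo ATP luminescence, read after 15 minutes, was used to assess MTT mouse pheochromocytoma cells treated for 24 or 48 hrs with library compounds (final 0.5 nM to 46 µM, 8 concentrations). The cells had been plated at 5 µl of 200,000 cells/ml per well in white 1536-well plates in DMEM with 5% FBS and 1% horse serum and cultured overnight at 37°C, 5% CO2. Normalisation set positive-control wells to 100% and DMSO wells to 0%. The IC50 was then determined by four-parameter logistic fitting.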

Row | SMILES | IC50 of cell viability [µM]
1 | CN1C(=O)CC(=O)N(c2ccccc2)c2cc(Cl)ccc21 [CLOBAZAM] | > 46
2 | CC(Cc1ccccc1)NCc1ccccc1Cl (configuration not stated) [CLOBENZOREX] | > 46
3 | CCCC(=O)O[C@]1(C(=O)CCl)C(C)CC2C3CCC4=CC(=O)C=CC4(C)[C@@]3(F)C(=O)CC21C (some centres not stated) [CLOBETASONE BUTYRATE] | > 46
4 | CC(CN(C)C)C(C)(O)Cc1ccc(Cl)cc1 (configuration not stated) [CLOBUTINOL HYDROCHLORIDE] | > 46
5 | CCOP(=O)(OCC)O/C(=C/Cl)c1ccc(Cl)cc1Cl [CLOFENVINFOSUM] | > 46
6 | CCN(CC)CCNC(=O)COc1ccc(Cl)cc1 [CLOFEXAMIDUM] | > 46
7 | CC(C)(C)CC(C)(C)c1ccc(O)c(Cc2ccc(Cl)cc2Cl)c1 [CLOFOCTOL] | > 46
8 | CN(C)CCCN1c2ccccc2CCc2ccc(Cl)cc21 [CLOMIPRAMINE] | > 46
9 | Clc1cccc(Cl)c1N=C1NCCN1 [CLONIDINE] | > 46
10 | Cc1c(Cl)cccc1Nc1ncccc1C(=O)O [CLONIXINUM] | > 46
11 | COC(=O)C(c1ccccc1Cl)N1CCc2sccc2C1 (configuration not stated) [CLOPIDOGREL BISULFATE] | > 46
12 | Cc1nc(C)c(Cl)c(O)c1Cl [CLOPIDOL] | > 46
13 | O=C([O-])CCC/C=C\C[C@@H]1[C@@H](/C=C/[C@@H](O)COc2cccc(Cl)c2)[C@H](O)C[C@@H]1O [CLOPROSTENOL SODIUM] | > 46
14 | CCOC(=O)COC1=C(Cl)C2=C(C=C1)\C(=C(CCN(CC)CC)/C(=O)O2)C [CLORICROMENUM] | > 46
15 | CC(C)NCC(O)c1ccccc1Cl (configuration not stated) [CLORPRENALINE HYDROCHLORIDE] | > 46
16 | CN1CCN(CC1)\C2=N\C3=C(NC4=C2C=CC=C4)C=CC(=C3)Cl [CLOZAPINE] | > 46

Row | SMILES | IC50 of cell viability [µM]
17 | CCc1cccc(N(C)C(=N)Nc2cccc3ccccc23)c1.Cl [CNS-1102] | > 46
18 | CC1CNC(=O)CCC2(C)C(CC(N)=O)C3[N+]/4=C2/C(=C\5C(CCC(N)=O)C(C)(C)C\6=[N+]5[Co-3]47(CC8OC(C(O)C8O)[N]9C=NC%10=C(N)N=CN=C9%10)(N%11/C(=C(C)\C%12=[N+]7\C(=C6)C(CCC(N)=O)C%12(C)CC(N)=O)C(CCC(N)=O)C(C)(CC(N)=O)C3%11C)[N+]%13=C[N](C%14O[C@H](CO)[C@@H](O[P]([O-])(=O)O1)C%14O)C%15=C%13C=C(C)C(=C%15)C)C (some centres not stated) [COENZYME B12] | > 46
19 | CCCCCCCCCCCCCCCC(=O)OCC(COP(=O)(O)OCC[N+](C)(C)C)OC(=O)CCCCCCCCCCCCCCC (configuration not stated) [COLFOSCERIL PALMITATE] | > 46
20 | CCC(C)C1NC(=O)C(CCNCS(=O)(=O)[O-])NC(=O)C(NC(=O)C(CCNCS(=O)(=O)[O-])NC(=O)C(NC(=O)C(CCNCS(=O)(=O)[O-])NC(=O)CCCCC(C)C)C(C)O)CCNC(=O)C(C(C)O)NC(=O)C(CCNCS(=O)(=O)[O-])NC(=O)C(CCNCS(=O)(=O)[O-])NC(=O)C(C(C)CC)NC1=O.[Na+].[Na+].[Na+].[Na+].[Na+] (configuration not stated) [COLISTIMETHATE SODIUM] | > 46
21 | CCC(C)C(=O)OC1CC/C=C2/C=C\C(C)C(CCC3CC(O)CC(=O)O3)[C@H]12 (some centres not stated) [COMPACTIN] | > 46
22 | CC1C2CCC3C4C\C=C/5CC(CC[C@@]5(C)C4CC[C@]23CN1C)N(C)C (some centres not stated) [CONESSINE] | > 46
23 | CCCC1CCCCN1 (configuration not stated) [CONIINE] | > 46
24 | C[C@]\12CCC(=O)\C=C1CCC3C4CC[C@](O)(C(=O)CO)[C@]4(C)CC(=O)C23 (some centres not stated) [CORTISONE] | > 46
25 | CCO[P](=S)(OCC)OC1=CC=C2\C(=C(Cl)/C(=O)OC2=C1)C [COUMOPHOS] | > 46
26 | CC1(C)CCC(NC(=O)[C@@H](N)CCC(=O)O)CC1 [CR 2249] | > 46
27 | Cc1cc(C)c(NC(=O)C[C@H](CC(=O)[O-])c2cccc3ccccc23)c(C(=O)N2CCC3(CCCC3)CC2)c1.[Na+] [CR 2945] | > 46
28 | CN1CC(=O)NC1=N [CREATININE] | > 46
29 | CC(=O)Oc1cccc(C)c1 [CRESYL ACETATE, M-] | > 46
30 | CC(=O)Oc1ccc(C)cc1 [CRESYL ACETATE] | > 46
31 | CC1CC(OC(=O)C(O)c2ccccc2)CC(C)(C)C1 (configuration not stated) [CYCLANDELATE] | > 46
32 | CC(=O)OC1=CC=C(C=C1)C(=C2/CCCCC2)\C3=CC=C(OC(C)=O)C=C3 [CYCLOFENIL] | > 46
